Assay results taken from PMC5936909, “Identification of potent chromone embedded [1,2,3]-triazoles as novel anti-tubercular agents” (Royal Society Open Science, 2018).
Read-outs that look alike come from different tables or passages of the source.

Experiments:
RAW 264.7 cells = assay: in vitro cytotoxicity, MTT assay; details: at 50 µg ml^−1, RAW 264.7 cells
[1] = system: Mycobacterium tuberculosis H37Rv (ATCC27294); assay: in vitro anti-tubercular activity, MABA assay; assay type: cell-based
[2] = Mycobacterium tuberculosis, M. tuberculosis H37Rv, MABA, lowest concentration with complete inhibition of growth, read-out: MIC
[3] = M. tuberculosis H37Rv, MABA, lowest concentration with complete inhibition of growth
[4] = Mycobacterium tuberculosis, supplement page S73 correlation table, read-out: MIC
[5] = Mycobacterium tuberculosis, supplement page S72, standard drugs, read-out: MIC

Compound | melting point [°C] | cytotoxicity (percentage inhibition of cells) (RAW 264.7 cells) [%] | MIC [1, 2] [µg/mL] | MIC [1, 3] [µg/mL] | MIC [1, 4] [µg/mL] | MIC [1, 5] [µM] | times more active than the standard drug ethambutol ([1]; ratio of MIC values) [times]
O=c1c(Cn2cc(C3(O)c4ccccc4-c4ccccc43)nn2)coc2ccccc12 [6r, 3-((4-(9-hydroxy-9H-fluoren-9-yl)-1H-1,2,3-triazol-1-yl)methyl)-4H-chromen-4-one] | 239 to 240 | 30.60 | 50 | – | – | – | –
O=c1c(Cn2cc(-c3cccc4ccccc34)nn2)coc2ccccc12 [6k, 3-((4-(naphthalen-1-yl)-1H-1,2,3-triazol-1-yl)methyl)-4H-chromen-4-one] | 154 to 155 | 26.12 | 50 | – | – | – | –
COc1ccc(-c2cn(Cc3coc4ccccc4c3=O)nn2)cc1 [6g, 3-((4-(4-methoxyphenyl)-1H-1,2,3-triazol-1-yl)methyl)-4H-chromen-4-one] | 170 to 171 | 28.40 | – | 6.25 | 6.25 | – | –
CCCCCCc1cn(Cc2coc3ccccc3c2=O)nn1 [6n, 3-((4-hexyl-1H-1,2,3-triazol-1-yl)methyl)-4H-chromen-4-one] | 84 to 85 | 23.74 | 50 | – | – | – | –
Cc1ccc(-c2cn(Cc3coc4ccccc4c3=O)nn2)cc1 [6b, 3-((4-(p-tolyl)-1H-1,2,3-triazol-1-yl)methyl)-4H-chromen-4-one] | 170 to 172 | 26.82 | 25 | – | – | – | –
CCCCCOc1ccc(-c2cn(Cc3coc4ccccc4c3=O)nn2)cc1 [6h, 3-((4-(4-(pentyloxy)phenyl)-1H-1,2,3-triazol-1-yl)methyl)-4H-chromen-4-one] | 154 to 155 | 18.68 | – | 3.125 | 3.12 | – | –
CCCCc1cn(Cc2coc3ccccc3c2=O)nn1 [6m, 3-((4-butyl-1H-1,2,3-triazol-1-yl)methyl)-4H-chromen-4-one] | 87 to 88 | 36.82 | – | 6.25 | 6.25 | – | –
Cc1cccc(-c2cn(Cc3coc4ccccc4c3=O)nn2)c1 [6i, 3-((4-(m-tolyl)-1H-1,2,3-triazol-1-yl)methyl)-4H-chromen-4-one] | 124 to 125 | 26.82 | 25 | – | – | – | –
O=c1c(Cn2cc(-c3ccccc3)nn2)coc2ccccc12 [6a, 3-((4-phenyl-1H-1,2,3-triazol-1-yl)methyl)-4H-chromen-4-one] | 154 to 155 | 12.86 | 25 | – | – | – | –
CCCCCc1ccc(-c2cn(Cc3coc4ccccc4c3=O)nn2)cc1 [6e, 3-((4-(4-pentylphenyl)-1H-1,2,3-triazol-1-yl)methyl)-4H-chromen-4-one] | 147 to 148 | 20.12 | 25 | – | – | – | –
2-((1H-1,2,3-triazol-1-yl)methyl)-4H-chromen-4-one [6t] | – | 30.12 | – | 50 | – | – | –
CO[C@H]1/C=C/O[C@@]2(C)Oc3c(C)c(O)c4c(O)c(c(/C=N/N5CCN(C)CC5)c(O)c4c3C2=O)NC(=O)/C(C)=C\C=C\[C@H](C)[C@H](O)[C@@H](C)[C@@H](O)[C@@H](C)[C@H](OC(C)=O)[C@@H]1C [Rifampicin, rifampicin, reference compound] | – | – | 0.24 | – | – | 0.24 | –
O=c1c(Cn2cc(C3CCCC3)nn2)coc2ccccc12 [6o, 3-((4-cyclopentyl-1H-1,2,3-triazol-1-yl)methyl)-4H-chromen-4-one] | 157 to 158 | 18.42 | – | 3.125 | 3.12 | – | –
CC(C)(C)c1ccc(-c2cn(Cc3coc4ccccc4c3=O)nn2)cc1 [6f, 3-((4-(4-(tert-butyl)phenyl)-1H-1,2,3-triazol-1-yl)methyl)-4H-chromen-4-one] | 218 to 219 | 20.12 | – | 3.125 | 3.12 | – | –
O=c1c(Cn2cc(CC3CCCCC3)nn2)coc2ccccc12 [6q, 3-((4-(cyclohexylmethyl)-1H-1,2,3-triazol-1-yl)methyl)-4H-chromen-4-one] | 133 to 134 | 28.62 | 25 | – | – | – | –
CC[C@@H](CO)NCCN[C@@H](CC)CO [ethambutol, reference compound] | – | – | 7.64 | – | – | 7.64 | –
3-((4-(4-propylphenyl)-1H-1,2,3-triazol-1-yl)methyl)-4H-chromen-4-one [6d] | – | 20.60 | – | 50 | – | – | –
O=c1c(Cn2cc(C3CCCCC3)nn2)coc2ccccc12 [6p, 3-((4-cyclohexyl-1H-1,2,3-triazol-1-yl)methyl)-4H-chromen-4-one] | 145 to 146 | 20.12 | – | 12.5 | 12.5 | – | –
CCc1ccc(-c2cn(Cc3coc4ccccc4c3=O)nn2)cc1 [6c, 3-((4-(4-ethylphenyl)-1H-1,2,3-triazol-1-yl)methyl)-4H-chromen-4-one] | – | 16.12 | 25 | – | – | – | –
COc1ccc(-c2cn(Cc3coc4ccccc4c3=O)nn2)c(C)c1 [6j, 3-((4-(4-methoxy-2-methylphenyl)-1H-1,2,3-triazol-1-yl)methyl)-4H-chromen-4-one] | 172 to 173 | 30.34 | 50 | – | – | – | –
O=c1c(Cn2cc(-c3ccccn3)nn2)coc2ccccc12 [6l, 3-((4-(pyridin-2-yl)-1H-1,2,3-triazol-1-yl)methyl)-4H-chromen-4-one] | 175 to 176 | 30.60 | 50 | – | – | – | –
O=c1c(Cn2cc(CCCCCCCCCCCCCCCO)nn2)coc2ccccc12 [6s, 3-((4-(15-hydroxypentadecyl)-1H-1,2,3-triazol-1-yl)methyl)-4H-chromen-4-one] | 123 to 124 | 24.68 | – | 1.56 | 1.56 | – | 4.8
